# Test results as given in patent US20200121677A1, “SUBSTITUTED 6,7-DIHYDROPYRAZOLO[1,5-a]PYRAZINES AS NEGATIVE ALLOSTERIC MODULATORS OF MGLUR2 RECEPTORS” (Janssen Pharmaceutica NV, priority 2014, published 2020).
# Like-named read-outs stand apart in the source and are kept apart here.
# What was measured:
# [1] = tested on: rats; experiment: Reversal of the effect of the mGluR2 PAM JNJ-42153605-induced inhibition of scopolamine-induced hyperlocomotion; format: in vivo, rat
# Method: 2) Reversal of the Effect of the mGluR2 PAM JNJ-42153605-Induced Inhibition of Scopolamine-Induced Hyperlocomotion
# Motor activity was measured in microprocessor-based motor activity arenas (closed gray PVC cylinders with a height of 39 cm and a diameter of 31 cm). Each arena was placed on an infrared LED (8×8 LEDs) lit box (white PVC squared box; 40×40 cm^2; height 12.5 cm. An infrared-sensitive tube camera and a white light source were mounted to the ceiling above the observation chamber to track the animal. The total distance traveled (cm) was recorded and analyzed using the Noldus Ethovision XT Video Tracking System (Version 7.0.418; Noldus, Wageningen, The Netherlands). The intensity of the light within the activity cages (measured in the centre at the level of the floor) ranged between 4 and 8 LUX.
# The rats were pretreated with test compound or vehicle at 60 min before the start of the activity recordings and placed into individual cages. The rats were challenged with JNJ-42153605 (3-(cyclopropylmethyl)-7-(4-phenylpiperidin-1-yl)-8-(trifluoromethyl)[1,2,4]triazolo[4,3-a]pyridine; WO2010/130424; Cid et al. J. Med. Chem. 2012, 55, 8770-8789) (20 mg/kg, i.v.) 30 min before the start of the activity recording combined with scopolamine (0.16 mg/kg, i.v.) just before the start of the activity measurements. Immediately after the injection of scopolamine, the rats were placed into the activity monitors and total distance traveled over the first 30 min was measured.
# For reversal of the inhibitory effect of JNJ-42153605 on the scopolamine-induced hyperlocomotion, the following all-or-none criteria were adopted: (1) reversal: total distance >1500 cm.
# [2] = target: human mGlu2 receptor (Homo sapiens, UniProt Q14416); experiment: [35S]GTPγS binding assay, mGluR2 negative allosteric modulation (membranes from CHO cells transfected with human mGlu2 receptor, glutamate ~EC80 60 μM); conditions: for GTPγS - hmGluR2 anGT pIC50: membranes with human mGlu2 receptor; for GTPγS - hmGluR2 anGT pIC50 / IC50: glutamate ~EC80 (60 μM), pIC50 = -log IC50 (M); for GTPγS - hmGluR2 anGT Emax: relative maximal effect: maximal % inhibition relative to the control glutamate response; for IC50: GTPγS - hmGluR2 anGT pIC50, membranes with human mGlu2 receptor;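 as to all read-outs here: membranes preincubated 30 min at 30 °C with compound plus glutamate, then [35S]GTPγS (0.1 nM) incorporation measured over another 30 min at 30 °C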
# Sequence of human mGlu2 receptor (Q14416 19-872): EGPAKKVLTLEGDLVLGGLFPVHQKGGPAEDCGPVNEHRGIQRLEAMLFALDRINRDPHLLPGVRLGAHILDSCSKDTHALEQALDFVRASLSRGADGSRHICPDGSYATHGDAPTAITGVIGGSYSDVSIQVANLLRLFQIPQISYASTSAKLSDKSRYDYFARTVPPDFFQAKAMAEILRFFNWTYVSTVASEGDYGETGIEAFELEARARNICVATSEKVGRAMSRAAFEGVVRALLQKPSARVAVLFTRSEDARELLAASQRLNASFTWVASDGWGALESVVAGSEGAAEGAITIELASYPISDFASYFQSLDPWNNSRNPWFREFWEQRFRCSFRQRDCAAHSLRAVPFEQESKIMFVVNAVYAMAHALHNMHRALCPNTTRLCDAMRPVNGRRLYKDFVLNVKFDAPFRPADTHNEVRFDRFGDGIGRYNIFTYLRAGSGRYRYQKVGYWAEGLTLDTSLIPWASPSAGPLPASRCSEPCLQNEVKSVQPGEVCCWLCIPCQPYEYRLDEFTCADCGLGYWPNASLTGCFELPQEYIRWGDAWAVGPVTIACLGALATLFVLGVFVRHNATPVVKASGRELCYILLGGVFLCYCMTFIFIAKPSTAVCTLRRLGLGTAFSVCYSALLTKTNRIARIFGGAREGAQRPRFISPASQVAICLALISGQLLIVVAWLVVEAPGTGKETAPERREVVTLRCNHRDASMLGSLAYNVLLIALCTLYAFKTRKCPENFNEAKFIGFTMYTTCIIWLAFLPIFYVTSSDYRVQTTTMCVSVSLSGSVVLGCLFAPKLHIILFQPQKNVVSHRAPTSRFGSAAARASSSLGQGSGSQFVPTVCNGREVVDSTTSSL
# [3] = rats, route PO, criterion total distance >1500 cm
# [4] = historical solvent-pretreated control rats, first 30 min, JNJ-42153605 20 mg/kg i.v., scopolamine 0.16 mg/kg i.v.
# [5] = read-out: GTPγS - hmGluR2 anGT Emax, relative maximal effect: maximal % inhibition relative to the control glutamate response
Compound,IC50 [2] [M],"Emax [2, 5] [%]",melting point [°C],other results
"COCC1CN(c2ccc(C(F)(F)F)cc2)C(=O)c2c(C(=O)Nc3cnccn3)cnn21 (single isomer, unassigned) [compound 154]",,,,"ED50 SCOP JNJ-42153605 (Reversal of the effect of JNJ 42153605 on scopolamine-induced hyperlocomotion) [1, 3]: 0.63 mg/kg; GTPγS - hmGluR2 anGT pIC50 [2]: 8.31; GTPγS - hmGluR2 anGT Emax [2]: 113%"
"COCC1CN(c2ccc(C(F)(F)F)c(Cl)c2)C(=O)c2c(C(=O)Nc3cccnc3)cnn21 (single isomer, unassigned) [compound 156]",,,,"ED50 SCOP JNJ-42153605 (Reversal of the effect of JNJ 42153605 on scopolamine-induced hyperlocomotion) [1, 3]: 0.20 mg/kg; GTPγS - hmGluR2 anGT pIC50 [2]: 8.77; GTPγS - hmGluR2 anGT Emax [2]: 107%"
"COCC1CN(c2ccc(C(F)(F)F)cc2)C(=O)c2c(C(=O)Nc3cccnc3)cnn21 (single isomer, unassigned) [compound 158]",,,,"ED50 SCOP JNJ-42153605 (Reversal of the effect of JNJ 42153605 on scopolamine-induced hyperlocomotion) [1, 3]: >0.63 mg/kg; GTPγS - hmGluR2 anGT pIC50 [2]: 8.48; GTPγS - hmGluR2 anGT Emax [2]: 108%"
"CN1[C@@H]2C[C@@H](OC(=O)[C@H](CO)c3ccccc3)C[C@H]1[C@@H]1O[C@@H]12 [Scopolamine, scopolamine]",,,,"Total distance traveled >1500 cm (%) [1, 4]: 100%; Total distance traveled >4400 cm (%) [1, 4]: 95.8%; Total distance traveled, Median (cm) [1, 4]: 7246 cm"
Cc1cncc(NC(=O)c2cnn3c2C(=O)N(c2ccc(Cl)c(Cl)c2)C[C@@H]3C)c1 [compound 28],,,,"ED50 SCOP JNJ-42153605 (Reversal of the effect of JNJ 42153605 on scopolamine-induced hyperlocomotion) [1, 3]: >0.63 mg/kg; GTPγS - hmGluR2 anGT pIC50 [2]: 9.06; GTPγS - hmGluR2 anGT Emax [2]: 107%"
COc1cncc(NC(=O)c2cnn3c2C(=O)N(c2ccc(Cl)c(Cl)c2)C[C@@H]3C)c1 [compound 29],,,,"ED50 SCOP JNJ-42153605 (Reversal of the effect of JNJ 42153605 on scopolamine-induced hyperlocomotion) [1, 3]: >0.63 mg/kg; GTPγS - hmGluR2 anGT pIC50 [2]: 8.75; GTPγS - hmGluR2 anGT Emax [2]: 107%"
"COc1nc(N2C[C@H](C)n3ncc(C(=O)Nc4ccccc4)c3C2=O)ccc1Cl [compound 83, (7S)-5-(5-Chloro-6-methoxy-2-pyridyl)-7-methyl-4-oxo-N-phenyl-6,7-dihydropyrazolo[1,5-a]pyrazine-3-carboxamide]",1.55e-08,111,203.08,
Cc1cc(NC(=O)c2cnn3c2C(=O)N(c2ccc(C(F)(F)F)c(C#N)c2)C[C@@H]3C)ccn1 [compound 91],1.86e-08,103,224.9,
COCc1cc(N2C[C@H](C)n3ncc(C(=O)Nc4ccnc(C)c4)c3C2=O)ccc1C(F)(F)F [compound 95],5.5e-09,112,,"ED50 ([1]; Rattus norvegicus, rats, route PO, criterion total distance >1500 cm, read-out: ED50 SCOP JNJ-42153605 (Reversal of the effect of JNJ 42153605 on scopolamine-induced hyperlocomotion)): > 2.5 mg/kg"
Cc1cc(NC(=O)c2cnn3c2C(=O)N(c2ccccc2)C[C@@H]3C)ccn1 [compound 97],1.48e-07,114,94.5,
Cc1ncc(NC(=O)c2cnn3c2C(=O)N(c2ccc(C(F)(F)F)cc2)C[C@@H]3C)cn1 [compound 99],4.57e-08,100,223.3,
C[C@H]1CN(c2ccc(C(F)(F)F)cc2)C(=O)c2c(C(=O)Nc3ncccn3)cnn21 [compound 103],1.02e-07,104,248.3,
C[C@H]1CN(c2ccc(C(F)(F)F)c(F)c2)C(=O)c2c(C(=O)Nc3cnccn3)cnn21 [compound 113],3.16e-09,107,181.5,
COc1cc(N2C[C@H](C)n3ncc(C(=O)Nc4cnccn4)c3C2=O)ccc1C(F)(F)F [compound 115],6.92e-09,108,193.3,
"COc1cccc(NC(=O)c2cnn3c2C(=O)N(c2ccc(C(F)(F)F)c(OC)n2)C[C@@H]3C)c1 [compound 119, (7S)—N-(3-Methoxyphenyl)-5-[6-methoxy-5-(trifluoromethyl)-2-pyridyl]-7-methyl-4-oxo-6,7-dihydropyrazolo[1,5-a]pyrazine-3-carboxamide]",7.76e-09,111,194.51,
COc1ccc(NC(=O)c2cnn3c2C(=O)N(c2ccc(C(F)(F)F)c(OC)n2)C[C@@H]3C)cc1 [compound 121],9.77e-09,109,212.39,
COc1ccccc1NC(=O)c1cnn2c1C(=O)N(c1ccc(C(F)(F)F)c(OC)n1)C[C@@H]2C [compound 122],2.14e-08,113,192.95,

Compound,IC50 [2] [M],"Emax [2, 5] [%]",melting point [°C],other results
Cc1cc(N2C[C@H](C)n3ncc(C(=O)Nc4cncc(F)c4C)c3C2=O)ccc1C(F)(F)F [compound 125],2.34e-09,110,156.83,
Cc1cc(NC(=O)c2cnn3c2C(=O)N(c2ccc(C(F)(F)F)c(Cl)c2)C[C@@H]3C)on1 [compound 128],2.88e-09,106,213.44,
Cc1c(F)cncc1NC(=O)c1cnn2c1C(=O)N(c1ccc(Cl)cc1)C[C@@H]2C [compound 129],6.17e-09,110,189.99,
Cc1c(F)cncc1NC(=O)c1cnn2c1C(=O)N(c1ccc(Cl)c(Cl)c1)C[C@@H]2C [compound 130],8.51e-10,110,211.11,
Cc1c(F)cncc1NC(=O)c1cnn2c1C(=O)N(c1ccc(C(F)(F)F)c(F)c1)C[C@@H]2C [compound 131],2.95e-09,110,186.35,
"C[C@H]1CN(c2ccc(C(F)(F)F)cc2)C(=O)c2c(C(=O)NCc3ccc(N)nc3)cnn21 [compound 136, (7S)—N-[(6-Amino-3-pyridyl)methyl]-7-methyl-4-oxo-5-[4-(trifluoromethyl)phenyl]-6,7-dihydropyrazolo[1,5-a]pyrazine-3-carboxamide]",1.55e-06,104,104.2,
"C[C@H]1CN(c2ccc(C(F)(F)F)cc2)C(=O)c2c(C(=O)NC(=O)C3CCC3)cnn21 [compound 137, (7S)—N-(cyclobutanecarbonyl)-7-methyl-4-oxo-5-[4-(trifluoromethyl)phenyl]-6,7-dihydropyrazolo[1,5-a]pyrazine-3-carboxamide]",4.07e-08,107,237.74,
CC(=O)NC(=O)c1cnn2c1C(=O)N(c1ccc(C(F)(F)F)cc1)C[C@@H]2C [compound 138],1.66e-07,114,212.65,
C[C@H]1CN(c2ccc(C(F)(F)F)cc2)C(=O)c2c(C(=O)Nc3ncco3)cnn21 [compound 139],2.57e-08,109,204.9,
C[C@H]1CN(c2ccc(C(F)(F)F)cc2)C(=O)c2c(C(=O)Nc3ncc[nH]3)cnn21 [compound 142],2.14e-07,110,257.9,
COc1cc(N2C[C@H](C)n3ncc(C(=O)Nc4cc(C)nc(C)c4)c3C2=O)ccc1C(F)(F)F [compound 143],8.13e-09,116,201.6,
C[C@H]1CN(c2ccc(C(F)(F)F)cc2)C(=O)c2c(C(=O)Nc3cncc(F)n3)cnn21 [compound 145],1.23e-09,126,209.5,
C[C@H]1CN(c2ccc(Cl)c(Cl)c2)C(=O)c2c(C(=O)Nc3cncc(F)n3)cnn21 [compound 146],9.55e-10,128,172.9,
"C[C@H]1CN(c2ccc(C(F)(F)F)cc2)C(=O)c2c(C(=O)Nc3cncc(CO)c3)cnn21 [compound 148, (7S)—N-[5-(hydroxymethyl)pyridin-3-yl]-7-methyl-4-oxo-5-[4-(trifluoromethyl)phenyl]-4,5,6,7-tetrahydropyrazolo[1,5-a]pyrazine-3-carboxamide]",1.86e-08,105,150.83,
C[C@H]1CN(c2ccc(C(F)(F)F)cc2)C(=O)c2c(C(=O)Nc3ccnc(CO)c3)cnn21 [compound 150],8.13e-09,107,169.28,
O=C(Nc1cccnc1)c1cnn2c1C(=O)N(c1ccc(C(F)(F)F)cc1)CC2 [compound 153],1.23e-07,111,229.9,
C[C@H]1CN(c2ccc(C(F)(F)F)cc2)C(=O)c2c(C(=O)Nc3ccc(S(=O)(=O)F)cc3)cnn21 [compound 167],4.27e-08,,205.04,Emax ([2]; read-out: GTPγS - hmGluR2 anGT Emax): 107%
